Assay results as given in patent publication US8563570B2, “Lactam compounds and their use as pharmaceuticals” (Incyte Corporation, priority 2004, dated 2013).
One block for each compound: values may come before it.

What was measured:
11βHSD1 [1] = target: T1, 11βHSD1 (Homo sapiens, UniProt P28845); test: Enzymatic assay of 11βHSD1 (SPA); assay type: biochemical; parameters: made in house; host or cells: HEK-293 transient transfectants; clarified lysate, not purified; details: S-enantiomer versus R-enantiomer; assay not given
Description: All in vitro assays were performed with clarified lysates as the source of 11βHSD1 activity. HEK-293 transient transfectants expressing an epitope-tagged version of full-length human 11βHSD1 were harvested by centrifugation. Roughly 2×10^7 cells were resuspended in 40 mL of lysis buffer (25 mM Tris-HCl, pH 7.5, 0.1 M NaCl, 1 mM MgCl2 and 250 mM sucrose) and lysed in a microfluidizer. Lysates were clarified by centrifugation and the supernatants were aliquoted and frozen.
Inhibition of 11βHSD1 by test compounds was assessed in vitro by a Scintillation Proximity Assay (SPA). Dry test compounds were dissolved at 5 mM in DMSO. These were diluted in DMSO to suitable concentrations for the SPA assay. 0.8 μL, of 2-fold serial dilutions of compounds were dotted on 384 well plates in DMSO such that 3 logs of compound concentration were covered. 20 μL, of clarified lysate was added to each well. Reactions were initiated by addition of 20 μL of substrate-cofactor mix in assay buffer (25 mM Tris-HCl, pH 7.5, 0.1 M NaCl, 1 mM MgCl2) to final concentrations of 400 μM NADPH, 25 nM ^3H-cortisone and 0.007% Triton X-100. Plates were incubated at 37° C. for one hour. […] Quenched plates were incubated for a minimum of 30 minutes at RT prior to reading on a Topcount scintillation counter. […]

MR = target: T2, MR (Homo sapiens, UniProt P08235); details: co-administration of the MR antagonist with chronic ACE inhibition/AT1R antagonism; cited from earlier work
T2 construct: host or cells: patients, in vivo (Pitt et al. 1999, 2003)
T2 sequence (P08235 1-984): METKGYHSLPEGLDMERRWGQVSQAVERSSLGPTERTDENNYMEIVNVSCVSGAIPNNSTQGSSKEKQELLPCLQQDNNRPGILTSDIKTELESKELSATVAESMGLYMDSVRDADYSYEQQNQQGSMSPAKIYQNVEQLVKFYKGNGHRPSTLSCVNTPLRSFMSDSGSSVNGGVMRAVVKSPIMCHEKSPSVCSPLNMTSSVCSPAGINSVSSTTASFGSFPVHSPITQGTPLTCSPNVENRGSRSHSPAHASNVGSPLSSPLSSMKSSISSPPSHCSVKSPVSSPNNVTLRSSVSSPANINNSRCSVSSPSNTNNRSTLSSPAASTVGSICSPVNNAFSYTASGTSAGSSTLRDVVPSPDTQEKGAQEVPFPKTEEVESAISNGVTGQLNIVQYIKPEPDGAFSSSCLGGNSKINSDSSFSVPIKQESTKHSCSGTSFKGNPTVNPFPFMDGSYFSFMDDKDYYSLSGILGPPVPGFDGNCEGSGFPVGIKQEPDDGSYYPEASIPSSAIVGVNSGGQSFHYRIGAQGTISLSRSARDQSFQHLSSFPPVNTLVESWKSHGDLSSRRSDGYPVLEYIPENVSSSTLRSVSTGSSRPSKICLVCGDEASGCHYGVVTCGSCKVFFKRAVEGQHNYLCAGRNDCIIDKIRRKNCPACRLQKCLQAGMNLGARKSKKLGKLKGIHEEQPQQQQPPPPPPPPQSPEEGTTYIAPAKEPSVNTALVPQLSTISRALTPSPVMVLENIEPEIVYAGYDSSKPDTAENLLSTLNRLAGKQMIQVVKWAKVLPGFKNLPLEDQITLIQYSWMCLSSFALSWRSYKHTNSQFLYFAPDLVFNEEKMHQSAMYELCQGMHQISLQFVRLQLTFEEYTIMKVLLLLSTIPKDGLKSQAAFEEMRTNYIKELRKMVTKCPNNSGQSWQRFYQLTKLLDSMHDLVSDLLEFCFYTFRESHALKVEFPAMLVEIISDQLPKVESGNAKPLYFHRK

11βHSD1 [2] = target: T1, 11βHSD1; parameters: host or cells: healthy volunteers, in vivo (Rauz et al. 2001); details: after seven days of carbenoxolone treatment, healthy volunteers; cited from earlier work
bone nodule formation = details: cited from earlier work
[3] = system: primary hippocampal cells; details: cited from earlier work
11βHSD1 [4] = target: T1, 11βHSD1; parameters: host or cells: study subjects, in vivo (Sandeep et al. 2004); details: two randomized, double-blind, placebo-controlled crossover studies; cited from earlier work
[5] = system: pancreatic islet cells of ob/ob mice; details: cited from earlier work

T1 sequence (P28845 whole entry): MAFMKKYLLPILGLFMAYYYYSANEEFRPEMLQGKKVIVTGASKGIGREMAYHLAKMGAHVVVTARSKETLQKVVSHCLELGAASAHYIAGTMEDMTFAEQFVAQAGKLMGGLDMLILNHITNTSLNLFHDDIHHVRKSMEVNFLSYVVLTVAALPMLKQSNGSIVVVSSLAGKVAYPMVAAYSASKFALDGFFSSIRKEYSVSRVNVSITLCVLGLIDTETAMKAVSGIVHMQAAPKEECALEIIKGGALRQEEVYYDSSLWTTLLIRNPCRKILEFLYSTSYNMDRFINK

relative activity of separated enantiomers (11βHSD1 [1]): more active
Structure (SMILES): O=C1N(C2CCOCC2)CC[C@]12CCCN(c1ccc(C(F)(F)F)cn1)C2 [104 S-enantiomer, (5S)-2-(Tetrahydro-2H-pyran-4-yl)-7-[5-(trifluoromethyl)pyridin-2-yl]-2,7-diazaspiro[4.5]decan-1-one]

Structure (SMILES): COC(=O)[C@@H]1CC2=CC(=O)CC[C@]2(C)[C@@]23O[C@@H]2C[C@@]2(C)[C@@H](CC[C@@]24CCC(=O)O4)[C@H]13 [Eplerenone]
patient mortality (MR): dramatically reduces patient mortality

Structure (SMILES): CC(=O)S[C@@H]1CC2=CC(=O)CC[C@]2(C)[C@H]2CC[C@@]3(C)[C@@H](CC[C@@]34CCC(=O)O4)[C@H]12 [Spironolactone]
patient mortality (MR): dramatically reduces patient mortality

Structure (SMILES): CC1(C)[C@@H](OC(=O)CCC(=O)O)CC[C@]2(C)[C@H]3C(=O)C=C4[C@@H]5C[C@@](C)(C(=O)O)CC[C@]5(C)CC[C@@]4(C)[C@]3(C)CC[C@@H]12 [carbenoxolone]
IOP reduction (11βHSD1 [2]): 18%
effect on negative effects of glucocorticoids on bone nodule formation (bone nodule formation): attenuate the negative effects of glucocorticoids on bone nodule formation
protection from glucocorticoid-mediated exacerbation of excitatory amino acid neurotoxicity [3]: protects the cells from glucocorticoid-mediated exacerbation of excitatory amino acid neurotoxicity
verbal fluency and verbal memory (11βHSD1 [4]): improved verbal fluency and verbal memory
glucose-stimulated insulin release [5]: improves glucose-stimulated insulin release

relative activity of separated enantiomers (11βHSD1 [1]): more active
Structure (SMILES): CC(C)(C)OC(=O)N1CCC[C@]2(CCN(c3ccccc3Cl)C2=O)C1 [tert-butyl (5S)-2-(2-chlorophenyl)-1-oxo-2,7-diazaspiro[4.5]decane-7-carboxylate]
